Test results taken from US11117900B2 (Vertex Pharmaceuticals Incorporated, priority 2012, dated 2021).

system: HCT116 colorectal cancer cells; test: Cisplatin sensitization assay (96 h MTS cell viability); type: cell-based; conditions: Cisplatin sensitization value;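 note: compound concentration needed to lower the IC50 of Cisplatin alone by a set fold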
Protocol: Compounds can be screened for their ability to sensitize HCT116 colorectal cancer cells to Cisplatin using a 96 h cell viability (MTS) assay. […] Compounds and Cisplatin are then both added simultaneously to the cell media in 2-fold serial dilutions from a top final concentration of 10 μM as a full matrix of concentrations in a final cell volume of 200 μl, and the cells are then incubated at 37° C. in 5% CO2. After 96 h, 40 μl of MTS reagent (Promega G358a) is added to each well and the cells are incubated for 1 h at 37° C. in 5% CO2.
Compounds with a Cisplatin sensitization value of <0.02 μM are marked with “+++.” Compounds with a Cisplatin sensitization value >0.02 μM but <0.2 μM are marked with “++.” Compounds with a Cisplatin sensitization value >0.2 μM but <5 μM are marked with “+.”

| SMILES | Cisplatin Sensitization Assay |
| --- | --- |
| Nc1nn2cc(F)cnc2c1C(=O)Nc1cnccc1C1CCN(S(=O)(=O)C2CC2)CC1 [I-C-47, 2-amino-N-(4-(1-(cyclopropylsulfonyl)piperidin-4-yl)pyridin-3-yl)-6-fluoropyrazolo[1,5-a]pyrimidine-3-carboxamide] | +++ (Compounds with a Cisplatin sensitization value of <0.02 μM are marked with “+++.”) |
| Nc1nn2cc(F)cnc2c1C(=O)Nc1cnccc1-c1ccc(C(=O)N2CCN3CCC2CC3)cc1 [I-C-48, N-(4-(4-(1,4-diazabicyclo[3.2.2]nonane-4-carbonyl)phenyl)pyridin-3-yl)-2-amino-6-fluoropyrazolo[1,5-a]pyrimidine-3-carboxamide] | +++ (Compounds with a Cisplatin sensitization value of <0.02 μM are marked with “+++.”) |
| Nc1nn2cc(F)cnc2c1C(=O)Nc1cnccc1-c1ccc(C(=O)N2CCN(C3COC3)CC2)cc1 [I-C-49, 2-amino-6-fluoro-N-(4-(4-(4-(oxetan-3-yl)piperazine-1-carbonyl)phenyl)pyridin-3-yl)pyrazolo[1,5-a]pyrimidine-3-carboxamide] | +++ (Compounds with a Cisplatin sensitization value of <0.02 μM are marked with “+++.”) |
| Nc1nn2cc(F)cnc2c1C(=O)Nc1cnccc1-c1ccc(C(=O)N2CCN3CCC2CC3)cc1F [I-C-50, N-(4-(4-(1,4-diazabicyclo[3.2.2]nonane-4-carbonyl)-2-fluorophenyl)pyridin-3-yl)-2-amino-6-fluoropyrazolo[1,5-a]pyrimidine-3-carboxamide] | +++ (Compounds with a Cisplatin sensitization value of <0.02 μM are marked with “+++.”) |
| Nc1nn2cc(F)cnc2c1C(=O)Nc1cnccc1-c1ccc(C(=O)N2CCN(C3COC3)CC2)cc1F [I-C-51, 2-amino-6-fluoro-N-(4-(2-fluoro-4-(4-(oxetan-3-yl)piperazine-1-carbonyl)phenyl)pyridin-3-yl)pyrazolo[1,5-a]pyrimidine-3-carboxamide] | ++ (Compounds with a Cisplatin sensitization value >0.02 μM but <0.2 μM are marked with “++.”) |
| Nc1nn2cc(F)cnc2c1C(=O)Nc1cnccc1-c1ccc(C(=O)N2CCN(C3COC3)CC2)nc1 [I-C-52, 2-amino-6-fluoro-N-(6-(4-(oxetan-3-yl)piperazine-1-carbonyl)-[3,4′-bipyridin]-3′-yl)pyrazolo[1,5-a]pyrimidine-3-carboxamide] | ++ (Compounds with a Cisplatin sensitization value >0.02 μM but <0.2 μM are marked with “++.”) |
| Nc1nn2cc(F)cnc2c1C(=O)Nc1cnccc1-c1ccc(C(=O)N2CCC(N3CCCC3)CC2)nc1 [I-C-53, 2-amino-6-fluoro-N-(6-(4-(pyrrolidin-1-yl)piperidine-1-carbonyl)-[3,4′-bipyridin]-3′-yl)pyrazolo[1,5-a]pyrimidine-3-carboxamide] | +++ (Compounds with a Cisplatin sensitization value of <0.02 μM are marked with “+++.”) |
| Nc1nn2cc(F)cnc2c1C(=O)Nc1cnccc1-c1ccc(C(=O)N2CCC(N3CCC3)CC2)nc1 [I-C-54, 2-amino-N-(6-(4-(azetidin-1-yl)piperidine-1-carbonyl)-[3,4′-bipyridin]-3′-yl)-6-fluoropyrazolo[1,5-a]pyrimidine-3-carboxamide] | +++ (Compounds with a Cisplatin sensitization value of <0.02 μM are marked with “+++.”) |
| Cn1ccnc1-c1ccncc1NC(=O)c1c(N)nn2cc(F)cnc12 [I-C-55, 2-amino-6-fluoro-N-(4-(1-methyl-1H-imidazol-2-yl)pyridin-3-yl)pyrazolo[1,5-a]pyrimidine-3-carboxamide] | + (Compounds with a Cisplatin sensitization value >0.2 μM but <5 μM are marked with “+.”) |
| Cn1cncc1-c1ccncc1NC(=O)c1c(N)nn2cc(F)cnc12 [I-C-56, 2-amino-6-fluoro-N-(4-(1-methyl-1H-imidazol-5-yl)pyridin-3-yl)pyrazolo[1,5-a]pyrimidine-3-carboxamide] | +++ (Compounds with a Cisplatin sensitization value of <0.02 μM are marked with “+++.”) |
| Cn1nccc1-c1ccncc1NC(=O)c1c(N)nn2cc(F)cnc12 [I-C-57, 2-amino-6-fluoro-N-(4-(1-methyl-1H-pyrazol-5-yl)pyridin-3-yl)pyrazolo[1,5-a]pyrimidine-3-carboxamide] | +++ (Compounds with a Cisplatin sensitization value of <0.02 μM are marked with “+++.”) |
| Cn1c(-c2ccncc2NC(=O)c2c(N)nn3cc(F)cnc23)cccc1=O [I-C-58, 2-amino-6-fluoro-N-(1-methyl-6-oxo-1,6-dihydro-[2,4′-bipyridin]-3′-yl)pyrazolo[1,5-a]pyrimidine-3-carboxamide] | +++ (Compounds with a Cisplatin sensitization value of <0.02 μM are marked with “+++.”) |
| Cn1cc(-c2ccncc2NC(=O)c2c(N)nn3cc(F)cnc23)ccc1=O [I-C-59, 2-amino-6-fluoro-N-(1-methyl-6-oxo-1,6-dihydro-[3,4′-bipyridin]-3′-yl)pyrazolo[1,5-a]pyrimidine-3-carboxamide] | ++ (Compounds with a Cisplatin sensitization value >0.02 μM but <0.2 μM are marked with “++.”) |
| Nc1nn2cc(F)cnc2c1C(=O)Nc1cnccc1-c1ccccn1 [I-C-60, N-([2,4′-bipyridin]-3′-yl)-2-amino-6-fluoropyrazolo[1,5-a]pyrimidine-3-carboxamide] | ++ (Compounds with a Cisplatin sensitization value >0.02 μM but <0.2 μM are marked with “++.”) |
| CS(=O)(=O)c1ccc(-c2ccncc2NC(=O)c2c(N)nn3cc(F)cnc23)cc1 [I-C-61, 2-amino-6-fluoro-N-(4-(4-(methylsulfonyl)phenyl)pyridin-3-yl)pyrazolo[1,5-a]pyrimidine-3-carboxamide] | +++ (Compounds with a Cisplatin sensitization value of <0.02 μM are marked with “+++.”) |
| Cc1nccnc1-c1ccncc1NC(=O)c1c(N)nn2cc(F)cnc12 [I-C-62, 2-amino-6-fluoro-N-(4-(3-methylpyrazin-2-yl)pyridin-3-yl)pyrazolo[1,5-a]pyrimidine-3-carboxamide] | ++ (Compounds with a Cisplatin sensitization value >0.02 μM but <0.2 μM are marked with “++.”) |
| Cc1nn(C)cc1-c1ccncc1NC(=O)c1c(N)nn2cc(F)cnc12 [I-C-63, 2-amino-N-(4-(1,3-dimethyl-1H-pyrazol-4-yl)pyridin-3-yl)-6-fluoropyrazolo[1,5-a]pyrimidine-3-carboxamide] | +++ (Compounds with a Cisplatin sensitization value of <0.02 μM are marked with “+++.”) |
| Nc1nn2cc(F)cnc2c1C(=O)Nc1cnccc1-c1ccc(S(=O)(=O)N2CCC2)cc1 [I-C-64, 2-amino-N-(4-(4-(azetidin-1-ylsulfonyl)phenyl)pyridin-3-yl)-6-fluoropyrazolo[1,5-a]pyrimidine-3-carboxamide] | +++ (Compounds with a Cisplatin sensitization value of <0.02 μM are marked with “+++.”) |
| Cn1ncnc1-c1ccncc1NC(=O)c1c(N)nn2cc(F)cnc12 [I-C-65, 2-amino-6-fluoro-N-(4-(1-methyl-1H-1,2,4-triazol-5-yl)pyridin-3-yl)pyrazolo[1,5-a]pyrimidine-3-carboxamide] | ++ (Compounds with a Cisplatin sensitization value >0.02 μM but <0.2 μM are marked with “++.”) |
| CN1CCOC[C@@H]1c1ccc(-c2ccncc2NC(=O)c2c(N)nn3cc(F)cnc23)cc1 [I-C-66, (S)-2-amino-6-fluoro-N-(4-(4-(4-methylmorpholin-3-yl)phenyl)pyridin-3-yl)pyrazolo[1,5-a]pyrimidine-3-carboxamide] | +++ (Compounds with a Cisplatin sensitization value of <0.02 μM are marked with “+++.”) |
| Cc1cncnc1-c1ccncc1NC(=O)c1c(N)nn2cc(F)cnc12 [I-C-67, 2-amino-6-fluoro-N-(4-(5-methylpyrimidin-4-yl)pyridin-3-yl)pyrazolo[1,5-a]pyrimidine-3-carboxamide] | ++ (Compounds with a Cisplatin sensitization value >0.02 μM but <0.2 μM are marked with “++.”) |
| Cn1ccc(-c2ccncc2NC(=O)c2c(N)nn3cc(F)cnc23)n1 [I-C-68, 2-amino-6-fluoro-N-(4-(1-methyl-1H-pyrazol-3-yl)pyridin-3-yl)pyrazolo[1,5-a]pyrimidine-3-carboxamide] | + (Compounds with a Cisplatin sensitization value >0.2 μM but <5 μM are marked with “+.”) |
| CC(=O)N1CCC(c2ccncc2NC(=O)c2c(N)nn3cc(F)cnc23)CC1 [I-C-69, N-(4-(1-acetylpiperidin-4-yl)pyridin-3-yl)-2-amino-6-fluoropyrazolo[1,5-a]pyrimidine-3-carboxamide] | +++ (Compounds with a Cisplatin sensitization value of <0.02 μM are marked with “+++.”) |
| Nc1nn2cc(F)cnc2c1C(=O)Nc1cnccc1C1CCN(C(=O)C2CC2)CC1 [I-C-70, 2-amino-N-(4-(1-(cyclopropanecarbonyl)piperidin-4-yl)pyridin-3-yl)-6-fluoropyrazolo[1,5-a]pyrimidine-3-carboxamide] | +++ (Compounds with a Cisplatin sensitization value of <0.02 μM are marked with “+++.”) |
| N#CC1(C(=O)N2CCC(c3ccncc3NC(=O)c3c(N)nn4cc(F)cnc34)CC2)CC1 [I-C-71, 2-amino-N-(4-(1-(1-cyanocyclopropanecarbonyl)piperidin-4-yl)pyridin-3-yl)-6-fluoropyrazolo[1,5-a]pyrimidine-3-carboxamide] | +++ (Compounds with a Cisplatin sensitization value of <0.02 μM are marked with “+++.”) |
| Cn1nncc1-c1ccncc1NC(=O)c1c(N)nn2cc(F)cnc12 [I-C-72, 2-amino-6-fluoro-N-(4-(1-methyl-1H-1,2,3-triazol-5-yl)pyridin-3-yl)pyrazolo[1,5-a]pyrimidine-3-carboxamide] | +++ (Compounds with a Cisplatin sensitization value of <0.02 μM are marked with “+++.”) |
